Among the data in ChEMBL document CHEMBL1743201, “Casarett and Doull's Toxicology The Basic Science of Poisons, 7th edition” (2008) are Activity values, retold here.

Common to all, as to format: ADME
For data set [1], the target named is T1, Cytochrome P450 1A2 (Homo sapiens, UniProt P05177).
T1 sequence (P05177 whole entry): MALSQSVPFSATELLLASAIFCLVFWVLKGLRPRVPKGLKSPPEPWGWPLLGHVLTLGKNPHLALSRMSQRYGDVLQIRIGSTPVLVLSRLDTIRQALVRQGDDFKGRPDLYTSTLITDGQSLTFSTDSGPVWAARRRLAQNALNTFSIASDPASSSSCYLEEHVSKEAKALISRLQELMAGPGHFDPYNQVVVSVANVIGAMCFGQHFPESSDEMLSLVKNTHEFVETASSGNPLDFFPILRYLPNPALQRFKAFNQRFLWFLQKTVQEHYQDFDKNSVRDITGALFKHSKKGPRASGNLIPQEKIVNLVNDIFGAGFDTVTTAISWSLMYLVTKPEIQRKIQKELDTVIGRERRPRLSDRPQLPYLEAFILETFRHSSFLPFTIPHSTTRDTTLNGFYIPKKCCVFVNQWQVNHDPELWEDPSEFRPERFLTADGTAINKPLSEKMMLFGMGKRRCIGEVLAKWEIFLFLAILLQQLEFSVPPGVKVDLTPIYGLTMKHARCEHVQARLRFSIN
Kind of data set: Clinically relevant inhibitors of human liver microsomal P450 enzymes, isoform CYP1A2. The note with it: microsomes. For orientation: Liver microsomes are a subcellular fraction often used to study metabolism.

Data set [2] has as its target T2, Cytochrome P450 2C9 (Homo sapiens, UniProt P11712). Nature of the data set: Clinically relevant inhibitors of human liver microsomal P450 enzymes, isoform CYP2C9. The note with it: microsomes.
A further data set deals with Cytochrome P450 2C19 (Homo sapiens, UniProt P33261). Nature of the data set: Clinically relevant substrates of human liver microsomal P450 enzymes, isoform CYP2C19. The note with it: microsomes.
Cytochrome P450 2C19, sequence (P33261 whole entry, canonical isoform): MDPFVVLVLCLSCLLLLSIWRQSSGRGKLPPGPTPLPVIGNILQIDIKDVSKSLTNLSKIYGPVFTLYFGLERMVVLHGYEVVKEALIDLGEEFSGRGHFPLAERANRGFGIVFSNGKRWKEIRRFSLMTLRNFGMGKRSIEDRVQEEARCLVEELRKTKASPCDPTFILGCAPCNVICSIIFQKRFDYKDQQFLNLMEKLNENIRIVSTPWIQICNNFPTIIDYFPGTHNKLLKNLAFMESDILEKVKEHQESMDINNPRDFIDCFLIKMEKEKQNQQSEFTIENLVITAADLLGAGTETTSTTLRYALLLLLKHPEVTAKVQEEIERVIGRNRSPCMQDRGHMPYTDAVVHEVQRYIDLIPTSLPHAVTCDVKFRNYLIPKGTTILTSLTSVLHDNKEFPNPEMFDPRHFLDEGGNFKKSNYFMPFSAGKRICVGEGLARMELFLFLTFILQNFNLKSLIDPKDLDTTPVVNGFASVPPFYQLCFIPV
In data set [3] the target is T3, UDP-glucuronosyltransferase 1A4 (Homo sapiens, UniProt P22310).
T3 sequence (P22310 whole entry): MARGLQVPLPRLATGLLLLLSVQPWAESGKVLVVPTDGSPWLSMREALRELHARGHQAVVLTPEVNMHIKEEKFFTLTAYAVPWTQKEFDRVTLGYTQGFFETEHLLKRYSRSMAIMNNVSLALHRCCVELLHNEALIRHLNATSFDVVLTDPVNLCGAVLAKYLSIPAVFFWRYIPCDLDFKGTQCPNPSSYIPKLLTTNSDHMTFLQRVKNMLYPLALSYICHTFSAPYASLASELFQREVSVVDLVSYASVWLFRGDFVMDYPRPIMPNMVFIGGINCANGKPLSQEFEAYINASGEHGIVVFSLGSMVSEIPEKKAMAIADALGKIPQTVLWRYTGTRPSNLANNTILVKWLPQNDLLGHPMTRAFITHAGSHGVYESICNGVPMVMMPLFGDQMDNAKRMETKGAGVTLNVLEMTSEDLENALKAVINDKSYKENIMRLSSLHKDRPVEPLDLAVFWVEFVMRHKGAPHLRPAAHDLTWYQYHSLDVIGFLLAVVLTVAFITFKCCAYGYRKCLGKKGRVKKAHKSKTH
Nature of the data set: Substrate of human UDP-glucuronosyltransferase UGT1A4.

In another data set the target is Cytochrome P450 2D6 (Homo sapiens, UniProt P10635). Kind of data set: Clinically relevant inhibitors of human liver microsomal P450 enzymes, isoform CYP2D6. Conditions: microsomes.
Cytochrome P450 2D6, sequence (P10635 whole entry, canonical isoform): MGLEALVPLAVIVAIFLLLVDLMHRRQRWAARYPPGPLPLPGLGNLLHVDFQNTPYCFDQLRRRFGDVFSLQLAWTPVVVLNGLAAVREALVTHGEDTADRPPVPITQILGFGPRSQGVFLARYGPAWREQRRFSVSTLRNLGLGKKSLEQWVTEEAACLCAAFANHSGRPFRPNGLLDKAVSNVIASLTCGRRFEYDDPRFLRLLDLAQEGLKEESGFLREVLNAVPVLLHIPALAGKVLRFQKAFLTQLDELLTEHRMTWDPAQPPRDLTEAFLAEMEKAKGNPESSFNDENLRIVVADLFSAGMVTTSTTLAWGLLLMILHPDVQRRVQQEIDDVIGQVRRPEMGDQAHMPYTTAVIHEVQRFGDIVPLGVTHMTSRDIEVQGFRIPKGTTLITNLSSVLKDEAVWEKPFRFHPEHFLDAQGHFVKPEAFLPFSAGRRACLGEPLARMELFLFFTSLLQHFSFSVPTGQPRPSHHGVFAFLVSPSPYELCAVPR
For data set [4], the target named is T2, Cytochrome P450 2C9. Kind of data set: Clinically relevant substrates of human liver microsomal P450 enzymes, isoform CYP2C9. Conditions: microsomes.
Data set [5] addresses T1, Cytochrome P450 1A2. Kind of data set: Clinically relevant inducers of human liver microsomal P450 enzymes, isoform CYP1A2. Conditions: microsomes.
The target in data set [6] is T4, UDP-glucuronosyltransferase 1A7 (Homo sapiens, UniProt Q9HAW7).
T4 sequence (Q9HAW7 whole entry): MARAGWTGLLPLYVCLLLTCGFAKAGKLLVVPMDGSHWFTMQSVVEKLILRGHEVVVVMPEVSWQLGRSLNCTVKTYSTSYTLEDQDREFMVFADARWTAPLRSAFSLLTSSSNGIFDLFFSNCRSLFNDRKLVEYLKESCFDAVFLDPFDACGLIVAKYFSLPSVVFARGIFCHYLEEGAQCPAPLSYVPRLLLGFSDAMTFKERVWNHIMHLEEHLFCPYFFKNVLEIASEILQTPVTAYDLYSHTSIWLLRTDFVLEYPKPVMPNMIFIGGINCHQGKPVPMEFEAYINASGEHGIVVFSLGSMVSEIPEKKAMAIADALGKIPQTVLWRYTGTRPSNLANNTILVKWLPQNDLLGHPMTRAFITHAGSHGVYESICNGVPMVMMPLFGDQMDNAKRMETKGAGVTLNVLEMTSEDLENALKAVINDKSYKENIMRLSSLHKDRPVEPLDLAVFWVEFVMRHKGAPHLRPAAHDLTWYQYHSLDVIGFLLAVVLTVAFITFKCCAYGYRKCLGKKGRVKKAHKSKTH
Nature of the data set: Substrate of human UDP-glucuronosyltransferase UGT1A7.

Data set [7] addresses T5, UDP-glucuronosyltransferase 2B15 (Homo sapiens, UniProt P54855).
T5 sequence (P54855 whole entry): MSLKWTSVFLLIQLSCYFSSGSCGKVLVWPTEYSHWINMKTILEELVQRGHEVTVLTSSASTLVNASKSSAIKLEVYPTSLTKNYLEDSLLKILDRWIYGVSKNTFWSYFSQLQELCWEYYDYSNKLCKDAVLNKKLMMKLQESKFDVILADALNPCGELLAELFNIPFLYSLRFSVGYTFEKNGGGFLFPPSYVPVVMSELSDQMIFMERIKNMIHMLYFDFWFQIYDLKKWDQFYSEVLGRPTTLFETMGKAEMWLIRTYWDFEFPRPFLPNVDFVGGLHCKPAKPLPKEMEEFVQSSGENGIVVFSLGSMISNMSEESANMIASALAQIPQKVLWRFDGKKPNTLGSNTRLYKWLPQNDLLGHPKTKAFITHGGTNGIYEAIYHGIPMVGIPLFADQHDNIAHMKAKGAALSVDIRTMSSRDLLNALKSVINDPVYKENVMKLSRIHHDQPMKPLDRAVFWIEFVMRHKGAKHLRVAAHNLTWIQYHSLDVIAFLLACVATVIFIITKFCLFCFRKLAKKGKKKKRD
Nature of the data set: Substrate of human UDP-glucuronosyltransferase UGT2B15.

For data set [8], the target named is T6, UDP-glucuronosyltransferase 1A9 (Homo sapiens, UniProt O60656).
T6 sequence (O60656 whole entry): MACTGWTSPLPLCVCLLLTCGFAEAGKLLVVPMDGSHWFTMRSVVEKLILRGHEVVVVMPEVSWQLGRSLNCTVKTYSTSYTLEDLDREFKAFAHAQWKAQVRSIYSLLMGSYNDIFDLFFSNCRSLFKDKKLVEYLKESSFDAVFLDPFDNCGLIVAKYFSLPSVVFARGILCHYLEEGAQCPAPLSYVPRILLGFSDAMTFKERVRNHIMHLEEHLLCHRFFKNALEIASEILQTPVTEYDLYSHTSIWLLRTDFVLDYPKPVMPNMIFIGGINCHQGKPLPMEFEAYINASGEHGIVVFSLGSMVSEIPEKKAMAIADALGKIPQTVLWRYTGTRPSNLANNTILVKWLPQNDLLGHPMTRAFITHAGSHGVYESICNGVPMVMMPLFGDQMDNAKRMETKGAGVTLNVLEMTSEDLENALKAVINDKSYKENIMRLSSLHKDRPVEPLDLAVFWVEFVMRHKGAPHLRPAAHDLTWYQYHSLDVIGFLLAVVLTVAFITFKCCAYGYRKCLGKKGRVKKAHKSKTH
Nature of the data set: Substrate of human UDP-glucuronosyltransferase UGT1A9.

Data set [9] concerns the target T7, UDP-glucuronosyltransferase 1A6 (Homo sapiens, UniProt P19224).
T7 sequence (P19224 whole entry): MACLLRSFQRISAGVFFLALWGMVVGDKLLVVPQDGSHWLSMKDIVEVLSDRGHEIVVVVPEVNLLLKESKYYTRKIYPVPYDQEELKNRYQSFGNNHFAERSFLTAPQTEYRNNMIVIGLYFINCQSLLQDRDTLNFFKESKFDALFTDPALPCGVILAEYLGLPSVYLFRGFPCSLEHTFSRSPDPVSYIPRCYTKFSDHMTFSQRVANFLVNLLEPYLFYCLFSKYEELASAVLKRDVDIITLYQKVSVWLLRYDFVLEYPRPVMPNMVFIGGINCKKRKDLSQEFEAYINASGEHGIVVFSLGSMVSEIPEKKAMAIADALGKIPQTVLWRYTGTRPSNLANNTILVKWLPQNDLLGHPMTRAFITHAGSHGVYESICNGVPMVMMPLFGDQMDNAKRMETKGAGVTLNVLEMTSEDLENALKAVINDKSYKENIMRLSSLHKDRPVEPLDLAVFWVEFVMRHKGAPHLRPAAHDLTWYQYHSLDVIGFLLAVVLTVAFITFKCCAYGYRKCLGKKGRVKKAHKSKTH
Nature of the data set: Substrate of human UDP-glucuronosyltransferase UGT1A6.

The target of data set [10] is T8, UDP-glucuronosyltransferase 2B7 (Homo sapiens, UniProt P16662).
T8 sequence (P16662 whole entry): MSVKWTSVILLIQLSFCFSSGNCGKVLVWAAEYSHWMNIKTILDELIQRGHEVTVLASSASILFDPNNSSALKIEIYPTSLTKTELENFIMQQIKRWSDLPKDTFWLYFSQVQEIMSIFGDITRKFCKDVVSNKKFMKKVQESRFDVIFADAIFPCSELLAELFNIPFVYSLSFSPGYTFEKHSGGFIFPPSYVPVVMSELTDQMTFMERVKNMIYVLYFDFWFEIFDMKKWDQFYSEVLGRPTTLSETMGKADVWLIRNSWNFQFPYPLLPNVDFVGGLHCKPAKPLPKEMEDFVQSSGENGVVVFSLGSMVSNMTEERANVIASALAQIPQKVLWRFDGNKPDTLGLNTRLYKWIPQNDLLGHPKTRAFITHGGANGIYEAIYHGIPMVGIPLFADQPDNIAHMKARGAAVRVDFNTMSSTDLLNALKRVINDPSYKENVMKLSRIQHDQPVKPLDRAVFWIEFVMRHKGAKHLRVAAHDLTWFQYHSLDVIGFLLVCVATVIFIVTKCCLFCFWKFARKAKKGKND
Nature of the data set: Substrate of human UDP-glucuronosyltransferase UGT2B7.

T2 sequence (P11712 whole entry, canonical isoform): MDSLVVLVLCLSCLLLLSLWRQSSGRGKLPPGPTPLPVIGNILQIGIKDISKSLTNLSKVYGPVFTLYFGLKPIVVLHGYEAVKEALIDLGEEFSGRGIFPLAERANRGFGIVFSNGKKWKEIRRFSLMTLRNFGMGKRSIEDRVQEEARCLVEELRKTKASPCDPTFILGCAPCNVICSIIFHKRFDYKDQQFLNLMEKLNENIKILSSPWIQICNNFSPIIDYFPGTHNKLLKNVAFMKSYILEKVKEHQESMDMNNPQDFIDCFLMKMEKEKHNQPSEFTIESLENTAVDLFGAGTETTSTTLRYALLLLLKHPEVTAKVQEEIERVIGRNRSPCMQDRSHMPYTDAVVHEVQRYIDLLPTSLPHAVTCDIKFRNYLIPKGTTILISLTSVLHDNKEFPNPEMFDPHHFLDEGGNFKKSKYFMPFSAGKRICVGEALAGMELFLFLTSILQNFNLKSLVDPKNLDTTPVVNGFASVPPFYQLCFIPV

Turning to `CC(c1cc2ccccc2s1)N(O)C(N)=O` (configuration not stated) [ZILEUTON], the Activity result at Cytochrome P450 1A2 [1] is on record as “Inhibitor”.

With `COCCCC/C(=N\OCCN)c1ccc(C(F)(F)F)cc1` [FLUVOXAMINE], the Activity entry on Cytochrome P450 1A2 [1] and at Cytochrome P450 2C9 [2] was “Inhibitor” in each case.

In the case of `O=C(NCCN1CCOCC1)c1ccc(Cl)cc1` [MOCLOBEMIDE], the Activity entry on Cytochrome P450 2C19 is recorded as “Substrate”.

Turning to `COc1ccnc(C[S+]([O-])c2nc3ccc(OC(F)F)cc3[nH]2)c1OC` (configuration not stated) [PANTOPRAZOLE], on Cytochrome P450 2C19, the Activity result is listed as “Substrate”.

Consider `CN1CCN(CCCN2c3ccccc3Sc3ccc(C(F)(F)F)cc32)CC1` [TRIFLUOPERAZINE], for which, in data set [3], the Activity result was “Substrate”.

Turning to `CCn1cc(C(=O)O)c(=O)c2cc(F)c(N3CCNCC3)cc21` [NORFLOXACIN], at Cytochrome P450 1A2 [1], the Activity entry was “Inhibitor”.

For the compound `Cc1cc2c(s1)Nc1ccccc1N=C2N1CCN(C)CC1` [OLANZAPINE], in data set [3], the Activity result is listed as “Substrate”.

Consider `CN(C/C=C/C#CC(C)(C)C)Cc1cccc2ccccc12` [TERBINAFINE], for which the Activity entry on Cytochrome P450 2D6 was “Inhibitor”.

For `CNCCC(Oc1ccc(C(F)(F)F)cc1)c1ccccc1` (configuration not stated) [FLUOXETINE], the Activity entry is on record as “Substrate” at Cytochrome P450 2C19, “Inhibitor” on Cytochrome P450 2C9 [2] and “Substrate” on Cytochrome P450 2C9 [4].

As to `Nc1nnc(-c2cccc(Cl)c2Cl)c(N)n1` [LAMOTRIGINE], the Activity result in data set [3] is “Substrate”.

Take `CN(C)CCC=C1c2ccccc2C=Cc2ccccc21` [CYCLOBENZAPRINE]: the Activity entry in [3] is “Substrate”.

With `CN[C@H]1CC[C@@H](c2ccc(Cl)c(Cl)c2)c2ccccc21` [SERTRALINE], the Activity result on Cytochrome P450 2D6 is “Inhibitor”.

On to `Cc1c(OCC(F)(F)F)ccnc1C[S+]([O-])c1nc2ccccc2[nH]1` (configuration not stated) [LANSOPRAZOLE], for which the Activity entry is “Substrate” on Cytochrome P450 2C19 and “Inducer” on Cytochrome P450 1A2 [5].

In the case of `O=c1cc(-c2ccccc2)oc2ccc3ccccc3c12` [BETA-NAPHTHOFLAVONE], the Activity result on Cytochrome P450 1A2 [5] was “Inducer”.

Take `COCC(=O)O[C@]1(CCN(C)CCCc2nc3ccccc3[nH]2)CCc2cc(F)ccc2[C@@H]1C(C)C` [MIBEFRADIL]: the Activity result at Cytochrome P450 2D6 was “Inhibitor”.

With `Cc1ccc2cc3c(ccc4ccccc43)c3c2c1CC3` [3-METHYLCHOLANTHRENE], the Activity result at Cytochrome P450 1A2 [5] was “Inducer”.

As to `Fc1ccc([C@@H]2CCNC[C@H]2COc2ccc3c(c2)OCO3)cc1` [PAROXETINE], the Activity result at Cytochrome P450 2D6 is on record as “Inhibitor”.

As to `CN/C(=N/CCSCc1nc[nH]c1C)NC#N` [CIMETIDINE], the Activity result at Cytochrome P450 1A2 [1] and at Cytochrome P450 2D6 was “Inhibitor” throughout.

For `CCCCCCCCOC(=O)c1cc(O)c(O)c(O)c1` [OCTYL_GALLATE], in data set [6], the Activity result is recorded as “Substrate”.

`O=C(O)Cc1ccccc1Nc1c(Cl)cccc1Cl` [DICLOFENAC]: the Activity entry (in [7]; in data set [8]; in data set [9]; in [10]; on Cytochrome P450 2C9 [4]) was “Substrate” in each case.

In the case of `Oc1ccc(-c2ccccc2)cc1`, in [6], the Activity entry is reported as “Substrate”.

For the compound `CN(C)CCC=C1c2ccccc2CCc2ccccc21` [AMITRIPTYLINE], the Activity result in [3] was “Substrate”.

On to `Cc1cccc(C)c1OCC(C)N` (configuration not stated) [MEXILETINE], for which the Activity entry on Cytochrome P450 1A2 [1] is “Inhibitor”.
